Measurements from US11365192B2, “Pyridine compound substituted with azole” (TAISHO PHARMACEUTICAL CO., LTD., priority 2017, dated 2022).

What was measured:
[1] = target: human CYP4A11 (Homo sapiens (Human), UniProt Q02928); experiment: Inhibition test against 20-HETE producing enzyme CYP4A11 (luciferine derivative, luminescence); type: biochemical
Procedure, shortened: (§1)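 E. coli membranes (100 μg/mL protein) expressing human enzyme, room temperature 60 min, luciferin-derivative luminescence; IC50 from % inhibition. CYP4F2: 50 mM KPO4 pH 7.4, 2.5 μM substrate, 1 mM NADPH. CYP4A11: 100 mM Tris-HCl pH 7.5, 60 μM substrate, NADP+/glucose 6-phosphate/G6PDH regenerating system, 3.3 mM MgCl2.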

[2] = target: human CYP4F2 (Homo sapiens (Human), UniProt P78329); experiment: Inhibition test against 20-HETE producing enzyme CYP4F2 (luciferine derivative, luminescence); type: biochemical
Procedure, shortened: as §1

[3] = human CYP4A11, luciferine derivative, luminescence
[4] = human CYP4F2, luciferine derivative, luminescence
[5] = E. coli membrane fraction expressing human CYP4A11, 60 μM luciferine derivative, room temperature 60 minutes
[6] = E. coli membrane fraction expressing human CYP4F2, 2.5 μM luciferine derivative, room temperature 60 minutes

human CYP4A11, sequence (Q02928 5-519): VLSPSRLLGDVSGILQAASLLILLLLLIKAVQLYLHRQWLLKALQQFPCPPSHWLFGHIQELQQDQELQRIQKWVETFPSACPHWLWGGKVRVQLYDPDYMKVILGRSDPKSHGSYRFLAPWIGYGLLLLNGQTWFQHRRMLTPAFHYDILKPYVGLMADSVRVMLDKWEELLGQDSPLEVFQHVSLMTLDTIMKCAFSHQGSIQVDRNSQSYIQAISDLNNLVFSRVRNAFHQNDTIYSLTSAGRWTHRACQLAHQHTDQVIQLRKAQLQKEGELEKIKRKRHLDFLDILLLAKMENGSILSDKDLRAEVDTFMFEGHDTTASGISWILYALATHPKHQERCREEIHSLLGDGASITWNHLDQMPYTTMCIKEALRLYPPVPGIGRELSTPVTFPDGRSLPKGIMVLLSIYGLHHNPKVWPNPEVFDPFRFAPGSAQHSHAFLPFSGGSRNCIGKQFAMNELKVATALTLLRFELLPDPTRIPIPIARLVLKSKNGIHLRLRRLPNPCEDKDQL
human CYP4F2, sequence (P78329 5-520): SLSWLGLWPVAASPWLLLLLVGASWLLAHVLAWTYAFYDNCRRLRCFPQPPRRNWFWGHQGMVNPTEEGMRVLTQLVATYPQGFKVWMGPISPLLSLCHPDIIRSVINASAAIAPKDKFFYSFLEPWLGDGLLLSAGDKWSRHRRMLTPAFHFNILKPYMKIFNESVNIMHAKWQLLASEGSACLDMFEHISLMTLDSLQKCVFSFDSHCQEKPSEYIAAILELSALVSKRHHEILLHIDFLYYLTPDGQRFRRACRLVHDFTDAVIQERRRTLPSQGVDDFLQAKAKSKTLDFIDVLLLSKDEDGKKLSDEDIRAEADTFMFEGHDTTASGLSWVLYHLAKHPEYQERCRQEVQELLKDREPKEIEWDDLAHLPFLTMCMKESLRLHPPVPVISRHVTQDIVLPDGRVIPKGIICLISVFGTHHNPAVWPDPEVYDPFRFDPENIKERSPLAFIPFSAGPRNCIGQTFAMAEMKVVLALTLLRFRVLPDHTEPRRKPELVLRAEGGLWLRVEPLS

Row | IC50 [1, 3] | IC50 [2, 4] | IC50 [1, 5] | IC50 [2, 6] | SMILES
1 | 240 nM | 6800 nM |  |  | O=C(NC1(C(=O)O)CCOCC1)c1cccc(COc2ccc(-c3ccn[nH]3)nc2)c1 [Example 45-13]
2 | 51 nM | 410 nM |  |  | CC(C)(CCNC(=O)c1cccc(COc2ccc(-c3ccn[nH]3)nc2)c1)C(=O)O [Example 45-14]
3 | 1200 nM | 180 nM |  |  | CC(C)(CCNC(=O)c1cc(COc2ccc(-c3ccn[nH]3)nc2)ccn1)C(=O)O [Example 45-15]
4 | 120 nM | 3400 nM |  |  | CC(C)(CCNC(=O)c1cccc(COc2ccc(-c3ccn[nH]3)nc2)n1)C(=O)O [Example 45-16]
5 | 510 nM | 1000 nM |  |  | CC(C)(CCNC(=O)c1cncc(COc2ccc(-c3ccn[nH]3)nc2)c1)C(=O)O [Example 45-17]
6 | 440 nM | 270 nM |  |  | CN(CCC(C)(C)C(=O)O)C(=O)c1cccc(COc2ccc(-c3ccn[nH]3)nc2)c1 [Example 45-18]
7 | 1000 nM | 13000 nM |  |  | O=C(N[C@H]1CC[C@@H](C(=O)O)CC1)c1cccc(COc2ccc(-c3ccn[nH]3)nc2)c1 [Example 45-19]
8 | 410 nM | 2100 nM |  |  | O=C(N[C@H]1CC[C@H](C(=O)O)CC1)c1cccc(COc2ccc(-c3ccn[nH]3)nc2)c1 [Example 45-20]
9 | 580 nM | 6100 nM |  |  | O=C(N[C@H]1C[C@@H](C(=O)O)C1)c1cccc(COc2ccc(-c3ccn[nH]3)nc2)c1 [Example 45-21]
10 | 97 nM | 2800 nM |  |  | O=C(N[C@H]1C[C@H](C(=O)O)C1)c1cccc(COc2ccc(-c3ccn[nH]3)nc2)c1 [Example 45-22]
11 | 710 nM | 3900 nM |  |  | O=C(NC12CC(C(=O)O)(C1)C2)c1cccc(COc2ccc(-c3ccn[nH]3)nc2)c1 [Example 45-23]
12 | 56 nM | 830 nM |  |  | O=C(O)c1ccc(CNC(=O)c2cccc(COc3ccc(-c4ccn[nH]4)nc3)c2)cc1 [Example 45-24]
13 | 40 nM | 370 nM |  |  | O=C(O)c1cccc(CNC(=O)c2cccc(COc3ccc(-c4ccn[nH]4)nc3)c2)c1 [Example 45-25]
14 | 31 nM | 880 nM |  |  | O=C(NCc1ccccc1C(=O)O)c1cccc(COc2ccc(-c3ccn[nH]3)nc2)c1 [Example 45-26]
15 | 510 nM | 2200 nM |  |  | O=C(O)C1CCN(C(=O)c2cccc(COc3ccc(-c4ccn[nH]4)nc3)c2)CC1 [Example 45-27]
16 | 270 nM | 3700 nM |  |  | O=C(O)[C@@H]1CCCN(C(=O)c2cccc(COc3ccc(-c4ccn[nH]4)nc3)c2)C1 [Example 45-28]
17 | 170 nM | 4900 nM |  |  | O=C(O)[C@H]1CCCN(C(=O)c2cccc(COc3ccc(-c4ccn[nH]4)nc3)c2)C1 [Example 45-29]
18 | 290 nM | 4000 nM |  |  | O=C(O)CC1CCN(C(=O)c2cccc(COc3ccc(-c4ccn[nH]4)nc3)c2)CC1 [Example 45-30]
19 | 370 nM | 2500 nM |  |  | O=C(O)CC1CCCN(C(=O)c2cccc(COc3ccc(-c4ccn[nH]4)nc3)c2)C1 (centres unmarked) [Example 45-31]
20 | 660 nM | 6800 nM |  |  | O=C(O)CC1CCCCN1C(=O)c1cccc(COc2ccc(-c3ccn[nH]3)nc2)c1 (centres unmarked) [Example 45-32]
21 | 220 nM | 17000 nM |  |  | O=C(O)[C@@H]1CCCN1C(=O)c1cccc(COc2ccc(-c3ccn[nH]3)nc2)c1 [Example 45-34]
22 | 3200 nM | 13000 nM |  |  | O=C(O)[C@H]1CCCN1C(=O)c1cccc(COc2ccc(-c3ccn[nH]3)nc2)c1 [Example 45-35]
23 | 230 nM | 1100 nM |  |  | O=C(O)C1CCN(C(=O)c2cccc(COc3ccc(-c4ccn[nH]4)nc3)c2)C1 (centres unmarked) [Example 45-36]
24 | 120 nM | 720 nM |  |  | O=C(c1cccc(COc2ccc(-c3ccn[nH]3)nc2)c1)N1CCC(F)(C(=O)O)C1 (centres unmarked) [Example 45-37]
25 | 310 nM | 300 nM |  |  | O=C(c1cc(COc2ccc(-c3ccn[nH]3)nc2)ccn1)N1CCC(F)(C(=O)O)C1 (centres unmarked) [Example 45-38]

Row | IC50 [1, 3] | IC50 [2, 4] | IC50 [1, 5] | IC50 [2, 6] | SMILES
26 | 470 nM | 1400 nM |  |  | O=C(O)C[C@H]1CCN(C(=O)c2cccc(COc3ccc(-c4ccn[nH]4)nc3)c2)C1 [Example 45-39]
27 | 410 nM | 1400 nM |  |  | O=C(O)C[C@@H]1CCN(C(=O)c2cccc(COc3ccc(-c4ccn[nH]4)nc3)c2)C1 [Example 45-40]
28 | 200 nM | 1800 nM |  |  | O=C(O)CC1CN(C(=O)c2cccc(COc3ccc(-c4ccn[nH]4)nc3)c2)C1 [Example 45-41]
29 | 450 nM | 34 nM |  |  | O=C(O)c1nc2c(o1)CN(C(=O)c1cccc(COc3ccc(-c4ccn[nH]4)nc3)c1)C2 [Example 45-42]
30 | 1700 nM | 5200 nM |  |  | O=C(O)c1ncc2c(n1)CN(C(=O)c1cccc(COc3ccc(-c4ccn[nH]4)nc3)c1)C2 [Example 45-43]
31 | 110 nM | 3500 nM |  |  | O=C(O)c1cnn2c1CN(C(=O)c1cccc(COc3ccc(-c4ccn[nH]4)nc3)c1)CC2 [Example 45-44]
32 | 1700 nM | 1600 nM |  |  | O=C(O)c1cc2n(n1)CCN(C(=O)c1cccc(COc3ccc(-c4ccn[nH]4)nc3)c1)C2 [Example 45-45]
33 | 160 nM | 54 nM |  |  | O=C(O)c1nc2c(o1)CCN(C(=O)c1cccc(COc3ccc(-c4ccn[nH]4)nc3)c1)C2 [Example 45-46]
34 |  |  | 3200 nM | 7600 nM | CC(C)(CC(=O)N1CCC(COc2ccc(-c3ccn[nH]3)nc2)CC1)C(=O)O [Example 46-1, 2,2-Dimethyl-4-oxo-4-[4 [[6-(1H-pyrazol-5-yl)-3-pyridinyl]oxymethyl]-1-piperidinyl]butanoic Acid]
35 |  |  | 730 nM | 470 nM | O=C(CCC12CC(C(=O)O)(C1)C2)N1CCC[C@@H](COc2ccc(-c3ccn[nH]3)nc2)C1 [Example 46-2]
36 |  |  | 1500 nM | > 50000 nM | O=C(O)C12CC(C(=O)N3CCC[C@@H](COc4ccc(-c5ccn[nH]5)nc4)C3)(C1)C2 [Example 46-3]
37 |  |  | 1000 nM | 18000 nM | O=C(O)C12CCC(C(=O)N3CCC[C@@H](COc4ccc(-c5ccn[nH]5)nc4)C3)(CC1)CC2 [Example 46-4]
38 |  |  | 280 nM | 7500 nM | O=C(O)c1cccc(CC(=O)N2CCC[C@@H](COc3ccc(-c4ccn[nH]4)nc3)C2)c1 [Example 46-5]
39 |  |  | 830 nM | 150 nM | O=C(CCCC1(C(=O)O)CCCC1)N1CCC(COc2ccc(-c3ccn[nH]3)nc2)CC1 [Example 47-1, 1-[4-Oxo-4-[4-[[6-(1H-pyrazol-5-yl)-3-pyridinyl]oxymethyl]-1-piperidinyl]butyl]-1-cyclopentanecarboxylic Acid]
40 |  |  | 620 nM | 11000 nM | O=C(O)CCC(=O)N1CCC(COc2ccc(-c3ccn[nH]3)nc2)CC1 [Example 48-1, 4-Oxo-4-[4-[[6-(1H-pyrazol-5-yl)-3-pyridinyl]oxymethyl]-1-piperidinyl]butanoic Acid]
41 |  |  | 1200 nM | 1100 nM | O=C(O)CCNC(=O)c1cc(COc2ccc(-c3ccn[nH]3)nc2)ccn1 [Example 49-1, 3-[[Oxo-[4-[[6-(1H-pyrazol-5-yl)-3-pyridinyl]oxymethyl]-2-pyridinyl]methyl]amino]propanoic Acid]
42 |  |  | 75 nM | 2800 nM | O=C(CCCCCCOc1ccc(-c2ccn[nH]2)nc1)NC1(C(=O)O)CCCC1 [Example 50-1, 1-[[1-Oxo-7-[[6-(1H-pyrazol-5-yl)-3-pyridinyl]oxy]heptyl]amino]-1-cyclopentanecarboxylic Acid]
43 |  |  | 270 nM | 3 nM | COC(=O)N1CCC(O)(c2cccc(COc3ccc(-c4ccn[nH]4)nc3)c2)CC1 [Example 51-1, Methyl 4-hydroxy-4-[3-[[6-(1-H-pyrazol-5-yl)-3-pyridinyl]oxymethyl]phenyl]-1-piperidinecarboxylate]
44 |  |  | 310 nM | 3.5 nM | CN(C)C(=O)N1CCC(O)(c2cccc(COc3ccc(-c4ccn[nH]4)nc3)c2)CC1 [Example 51-2]
45 |  |  | 710 nM | 4.4 nM | CC(=O)N1CCC(O)(c2cccc(COc3ccc(-c4ccn[nH]4)nc3)c2)CC1 [Example 52-1, 1-[4-Hydroxy-4-[3-[[6-(1-H-pyrazol-5-yl)-3-pyridinyl]oxymethyl]phenyl]-1-piperidinyl]ethanone]
46 |  |  | 520 nM | 50 nM | CC(=O)N1CC(O)(c2cccc(COc3ccc(-c4ccn[nH]4)nc3)c2)C1 [Example 52-2]
47 |  |  | 110 nM | 190 nM | NC(=O)c1cccc(COc2ccc(-c3ccn[nH]3)nc2)c1 [Example 53-1, 3-[[6-(1H-Pyrazol-5-yl)-3-pyridinyl]oxymethyl]benzamide]
48 |  |  | 950 nM | 16 nM | NC(=O)c1cc(COc2ccc(-c3n[nH]cc3Cl)nc2)ccn1 [Example 53-2]
49 |  |  | 70 nM | 21000 nM | CS(=O)(=O)NC(=O)CCCCCOc1ccc(-c2ccn[nH]2)nc1 [Example 54-1, N-Methylsulfonyl-6-[[6-(1H-pyrazol-5-yl)-3-pyridinyl]oxy]hexanamide]
50 |  |  | 200 nM | 6500 nM | CC(C)(CCNC(=O)N1CCC[C@@H](COc2ccc(-c3ccn[nH]3)nc2)C1)C(=O)O [Example 55-1, 2,2-Dimethyl-4-[[oxo-[(3R)-3-[[6-(1H-pyrazol-5-yl)-3-pyridinyl]oxymethyl]-1-piperidinyl]methyl]amino]butanoic Acid]

Row | SMILES | IC50 [1, 3] | IC50 [2, 4] | IC50 [1, 5] | IC50 [2, 6]
51 | O=C(O)C1CC2CCC(C1)N2C(=O)c1cccc(COc2ccc(-c3ccn[nH]3)nc2)c1 (centres unmarked) [Example 45-33] | 2000 nM | 19000 nM |  | 
52 | O=C(NCc1cc(O)no1)c1cccc(COc2ccc(-c3ccn[nH]3)nc2)c1 [Example 45-47] |  |  | 190 nM | 970 nM
